Reference: patent US7048907B2, “Synthesis, compositions and methods for the measurement of the concentration of stable-isotope labeled compounds in life forms and life form excretory products” (BioPhysics Assay Laboratory, Inc., priority 2001, dated 2006)

Experiments:
[1] = Assay of chelate on carboxymethyl (CM) Sephadex column (chelate formation, charge); assay type: physicochemical
[2] = Kinetics of blood depletion and urine accumulation of chelates in the rat; assay type: in vivo; conditions: average of three rats
Description: One half ml of Sm-DTPA (0.01 mg/kg), dissolved in saline (pH 7), is injected into the tail vein of three rats. Samples of blood are obtained at 10, 30 and 60 minutes following injection and analyzed for Sm-DTPA by neutron activation. The percent of starting amount of the Sm-DTPA at each time interval is presented in Table 18 (last column on right). Similarly, the accumulation of Sm-DTPA in the rat urine at two times is shown in the last column of Table 18.
One half ml of Technetium-99m-DTPA (1 millicurie), Gd-DTPA (0.05 mg/kg), and Sm-DTPA (0.01 mg/kg) are each dissolved in saline (pH 7), and are injected simultaneously into the tail vein of three rats. Samples of blood are obtained at 10, 30 and 60 minutes following injection and analyzed for ^99mTc-DTPA (gamma counting), Gd-DTPA (T1 relaxation) and Sm-DTPA (neutron activation).
One half ml of Sm-DTPA, La-DTPA and Eu-DTPA (each 0.01 mg/kg), dissolved in saline (pH 7) are injected simultaneously into the tail vein of three rats. Samples of blood are obtained at 10, 30 and 60 minutes following injection and analyzed for each element by neutron activation.
Samples of Sm-DTPA, La-DTPA and Eu-DTPA (0.5 ml; 0.01 mg/kg), each dissolved in saline (pH 7), are injected sequentially at 0, 20, and 40 minutes into the tail vein of three rats. Samples of blood are obtained at 10, 30 and 60 min following each injection and analyzed for each element by neutron activation.

[3] = Stability of chelates to autoclaving (CM-Sephadex assay); assay type: physicochemical; conditions: for % of total / dpm: autoclaved 30 minutes at 121° C.
Description: A sample comprising 5 ml of Sm-DTPA, La-DTPA, and Eu-DTPA prepared in Examples 9, 10, and 11 were placed in 10 ml glass bottles, each capped with a grey butyl rubber cap, and the caps were crimped. Samples were autoclaved for 30 minutes at 121° C.
Five ml of each of Sm-DOTA, La-DOTA, and Eu-DOTA prepared in Examples 13, 14, and 15 were placed in 10 ml glass bottles capped with a grey butyl rubber cap and crimped. Samples were autoclaved for 30 minutes at 121° C. Samples were allowed to cool to room temperature and were assayed as described in Examples 25.

[4] = Fraction 1: 3 ml 0.01M Tris pH 7.5 before sample
[5] = Fraction 2: 1 ml sample then 3 ml 0.01M Tris pH 7.5 (eluate)
[6] = Fraction 3: further 3 ml 0.01M Tris pH 7.5
[7] = Fraction 4: column and contents (retained)
[8] = Fraction 1: sample diluted 1:10 then 2-3 ml 0.01M Tris pH 7.5 (eluate)
[9] = Fraction 2: 3 ml 0.01M Tris pH 7.5
[10] = Fraction 3: column and contents (retained)

O=C([O-])CN(CCN(CC(=O)[O-])CC(=O)[O-])CCN(CC(=O)[O-])CC(=O)[O-].[La+3] [La-DTPA]
% eluted from the CM-Sephadex column [1]: 100% | % of total [1, 4]: 0 % of total | dpm [1, 4]: 0 dpm | % of total [1, 5]: 100 % of total | dpm [1, 5]: 489692 dpm | % of total [1, 6]: 0 % of total | dpm [1, 6]: 0 dpm | % of total [1, 7]: 0 % of total | dpm [1, 7]: 0 dpm | time within which the chelate forms ([1]; room temperature, Tris pH 7.5): ≤ 5 min | Percent of initial injection, blood ([2]; blood 10 min, Sm-DTPA, La-DTPA and Eu-DTPA (each 0.01 mg/kg i.v.) simultaneously administered (Example 31)): 85% of initial injection | Percent of initial injection, blood ([2]; blood 10 min after each injection, Sm-DTPA, La-DTPA, Eu-DTPA (0.01 mg/kg i.v.) sequentially administered at 0, 20, 40 minutes (Example 32)): 82% of initial injection | Percent of initial injection, blood ([2]; blood 30 min, Sm-DTPA, La-DTPA and Eu-DTPA simultaneously administered (Example 31)): 63% of initial injection | Percent of initial injection, blood ([2]; blood 30 min after each injection, sequentially administered (Example 32)): 62% of initial injection | Percent of initial injection, blood ([2]; blood 60 min, Sm-DTPA, La-DTPA and Eu-DTPA simultaneously administered (Example 31)): 33% of initial injection | Percent of initial injection, blood ([2]; blood 60 min after each injection, sequentially administered (Example 32)): 32% of initial injection | Percent of initial injection, urine ([2]; urine 30 min, Sm-DTPA, La-DTPA and Eu-DTPA simultaneously administered (Example 31)): 23% of initial injection | Percent of initial injection, urine ([2]; urine 30 min, sequentially administered (Example 32)): 25% of initial injection | Percent of initial injection, urine ([2]; urine 180 min, Sm-DTPA, La-DTPA and Eu-DTPA simultaneously administered (Example 31)): 92% of initial injection | Percent of initial injection, urine ([2]; urine 180 min, sequentially administered (Example 32)): 95% of initial injection | % eluted from CM-Sephadex column following autoclaving [3]: 100% | % of total [3, 8]: 97 % of total | dpm [3, 8]: 411400 dpm | % of total [3, 9]: 3 % of total | dpm [3, 9]: 12180 dpm | % of total [3, 10]: 0 % of total | dpm [3, 10]: 0 dpm
